Measured values reported in paper PMC11044151, “Development of Half-Sandwich Ru, Os, Rh, and Ir Complexes Bearing the Pyridine-2-ylmethanimine Bidentate Ligand Derived from 7-Chloroquinazolin-4(3H)-one with Enhanced Antiproliferative Activity” (ACS Omega, 2024).
Where two headings read alike, the source gives them in different places.

Tests used:
SW620C = assay: Neutral red uptake antiproliferative assay, MDR line SW620C; assay type: cell-based, human; conditions: for IC50: exposure time 72 h, n = 3, ABCG2-overexpressing MDR line
Source text: (§1) Next, we evaluated the cytotoxicity of the synthesized complexes toward the panel of six multidrug-resistant (MDR) cell lines derived from SW620 and characterized by the overexpression of various ABC proteins, namely, ABCG2 (SW620C and SW620Mito), ABCC1 (SW620M and SW620E), and ABCB1 (SW620D, SW620E, and SW620V) (Table 3, Figures S29 and S32). […] The activity of the complexes derived from the ligand (S)-2 is also considerably higher than that of the compounds containing the ligand (R)-2. The cytotoxicity of both rhodium 4c and iridium 4d complexes is higher than that of amine (S)-1. In the case of 4c, the increase in cytotoxicity is low, with the highest value of 3.7-fold for the SW620Mito line. […] Compound 4d also exerts a 2.1- and 2.6-fold higher cytotoxicity than […] against the SW620C and SW620D lines.
(§2) For this purpose, neutral red uptake assay was performed. […] The results were presented as a percentage of control.

SW620M = assay: Neutral red uptake antiproliferative assay, MDR line SW620M; assay type: cell-based, human; conditions: for IC50: exposure time 72 h, n = 3, ABCC1-overexpressing MDR line
Source text: as §1, §2

SW620V = assay: Neutral red uptake antiproliferative assay, MDR line SW620V; assay type: cell-based, human; conditions: for IC50: exposure time 72 h, n = 3, ABCB1-overexpressing MDR line
Source text: as §1, §2

SW620 = assay: Neutral red uptake antiproliferative assay, SW620; assay type: cell-based, human; conditions: for IC50: exposure time 72 h, n = 3, 95% CI given
Source text: (§3) To assess the impact of conjugating half-sandwich complexes with amines 1 via an imine-pyridine ligand on biological activity, we examined the antiproliferative potential of (R)- and (S)-1 and organometallic conjugates 3a–d and 4a–d in selected human cancer cell lines: alveolar basal epithelial cell adenocarcinoma (A549), colorectal adenocarcinomas (Colo205 and SW620), colorectal carcinoma (HCT116), hepatocellular carcinoma (HepG2), and breast adenocarcinoma (MCF7). The choice of cell lines was dictated by results of previously published clinical trials on ispinesib.[49],[50]
(§4) Cell lines used in this study were purchased from the American Type Culture Collection via LGC Standards. Human normal lung fibroblasts (MRC-5), alveolar basal epithelial cell adenocarcinoma (A549), colorectal adenocarcinoma (Colo205), hepatocellular carcinoma (HepG2), breast adenocarcinoma (MCF7), and colorectal adenocarcinoma (SW620) and its MDR variants[55] were cultured in standard conditions (37 °C, 5% CO2, 100% relative humidity) in high glucose DMEM medium supplemented with GlutaMax, HEPES (ThermoFisher Scientific) and 10% fetal bovine serum (EURx, Poland). All cell lines were tested for Mycoplasma contamination using a MycoProbe mycoplasma detection kit (R&D System).
(§5) For this purpose, neutral red uptake assay was performed. 10^4 of cells were seeded per well of a 96-well plate and left overnight to allow cells to attach to the surface. Then, the cells were exposed to a desired concentration of tested compounds. Stock solutions were prepared in DMSO and were used immediately after preparation. The final concentration of DMSO was constant and nontoxic (0.1% v/v). After 70 h of culture, neutral red was added to the final concentration of 1 mM. After 2 h of incubation with the dye, the medium was aspirated and cells were washed with ice-cold PBS. The dye was released using 100 μL of the solubilizer (1% acetic acid in 50% ethanol) on an orbital shaker (10 min). The absorbance at 540 nm was measured using an EnVision multilabel plate reader (PerkinElmer). […] The IC90 and IC50 parameters were calculated using GraphPad Prism v9 software using the five-parameter nonlinear logistic regression model.

HCT116 = assay: cells; conditions: for IC50: read-out: IC50 HCT116
Source text: as §3, §5

SW620E = assay: Neutral red uptake antiproliferative assay, MDR line SW620E; assay type: cell-based, human; conditions: for IC50: exposure time 72 h, n = 3, ABCC1- and ABCB1-overexpressing MDR line
Source text: as §1, §2

Colo205 = assay: cells; conditions: for IC50: read-out: IC50 Colo205
Source text: as §3, §4, §5

MCF7 = assay: cells; conditions: for IC50: read-out: IC50 MCF7
Source text: as §3, §4, §5

HepG2 = assay: cells; conditions: for IC50: read-out: IC50 HepG2
Source text: as §3, §4, §5

SW620Mito = assay: Neutral red uptake antiproliferative assay, MDR line SW620Mito; assay type: cell-based, human; conditions: for IC50: exposure time 72 h, n = 3, ABCG2-overexpressing MDR line
Source text: as §1, §2

SW620D = assay: Neutral red uptake antiproliferative assay, MDR line SW620D; assay type: cell-based, human; conditions: for IC50: exposure time 72 h, n = 3, ABCB1-overexpressing MDR line
Source text: as §1, §2

A549 = assay: Neutral red uptake antiproliferative assay, A549; conditions: for IC50: read-out: IC50 A549
Source text: as §3, §4, §5

SW620 cells = assay: Cell cycle distribution by flow cytometry, SW620; assay type: cell-based, human; conditions: concentration equal to IC75 of (S)-1 / (R)-1, mean ± SEM, n = 3; for Cell cycle fraction G1, 24 h / Cell cycle fraction G2/M, 24 h / Cell cycle fraction S, 24 h: SW620, 24 h; for Cell cycle fraction G1, 48 h / Cell cycle fraction G2/M, 48 h / Cell cycle fraction S, 48 h: SW620, 48 h
Method: Ispinesib leads to the formation of monopolar mitotic spindles and a blockade of chromosome segregation in cancer cells. Using flow cytometry, we assessed the cell cycle distribution in the SW620 and SW620E cells exposed to the studied compounds for 24 and 48 h. […] Both complexes, 3c and 3d, decrease the percentage of cells in the G1/G0 phase and increase the percentage in the S and G2/M phases. […] Furthermore, prolonged exposure to the compounds increases the percentage of cells in the G2/M phase, with the most intensive effect observed for 3c and 3d.
SW620 and SW620E cells lines (vulnerable and resistant variants, respectively) were seeded in 6-well plates at a density of 10^5 cells per well. […] After 24 h, the cells were trypsinized and fixed with ice-cold 70% v/v ethanol. The cells were stained with 75 μM propidium iodide with 50 Kunitz units of RNase A in PBS for 30 min at 37 °C. All samples were analyzed using a LSRII flow cytometer (Becton Dickinson) at a PE channel ([…]). Cell cycle phase distribution was determined using a built-in cell cycle module (Watson pragmatic algorithm) by FlowJo 7.6.1 software.

KSP = biological target: T1, KSP (Homo sapiens, UniProt P52732); assay: Kinesin ATPase inhibition (ATP hydrolysis) end-point assay; assay type: biochemical; conditions: 100 nM stated for ispinesib and (R)-1; concentration not restated for the complexes
T1 construct: purchased Cytoskeleton, Inc
T1 sequence (P52732 1-368 limits assumed): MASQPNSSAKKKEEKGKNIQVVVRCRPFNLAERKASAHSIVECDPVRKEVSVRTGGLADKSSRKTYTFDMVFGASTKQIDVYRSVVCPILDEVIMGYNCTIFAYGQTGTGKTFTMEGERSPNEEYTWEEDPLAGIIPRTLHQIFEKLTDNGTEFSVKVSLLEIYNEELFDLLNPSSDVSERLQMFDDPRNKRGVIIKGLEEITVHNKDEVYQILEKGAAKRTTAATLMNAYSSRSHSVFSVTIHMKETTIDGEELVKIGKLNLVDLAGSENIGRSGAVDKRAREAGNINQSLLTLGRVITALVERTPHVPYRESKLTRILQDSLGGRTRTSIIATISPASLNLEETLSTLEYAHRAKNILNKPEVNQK
Method: The mechanism of the anticancer activity of ispinesib is related to the inhibition of the activity of the KSP. Thus, we studied the synthesized compounds’ ability to inhibit KSP activity using the adenosine 5′-triphosphate (ATP) hydrolysis assay.
The potential kinesin modulatory activity of tested compounds was performed using a Kinesin ATPase end-point biochem kit (Cytoskeleton, Inc.). […] The experiment was performed according to the manufacturer’s instructions. One μg of tested kinesin (KSP) was used per reaction. Phosphate release was measured at the absorbance 650 nm using an EnVision multilabel plate reader (PerkinElmer).

[1] = vs corresponding amine (R)-1 or (S)-1, 72 h
[2] = exposure time 72 h, n = 3, 95% CI given

CC(C)[C@H](N=Cc1ccccn1)c1nc2cc(Cl)ccc2c(=O)n1Cc1ccccc1.Cc1ccc(C(C)C)cc1.F[P-](F)(F)(F)(F)F.[Cl-].[Os+2] [Compound 4b, [(cym)Os((S)-2)Cl]PF6]
IC50 (SW620C): 4540 nM
activity factor IC50(1)/IC50(3a–4d), SW620C (SW620C; [1]): (0.738)
IC50 (SW620M): 2450 nM
activity factor IC50(1)/IC50(3a–4d), SW620M (SW620M; [1]): (1.41)
IC50 (SW620V): 9300 nM
activity factor IC50(1)/IC50(3a–4d), SW620V (SW620V; [1]): (0.370)
IC50 (SW620): 2310 nM
activity factor IC50(1)/IC50(3a–4d), SW620 (SW620; [1]): (1.24)
increased cytotoxicity vs corresponding amine 1, HCT116 (HCT116): 10 fold
IC50 (HCT116; [2]): 823 nM
activity factor IC50(1)/IC50(3a–4d), HCT116 (HCT116; [1]): (9.79)
IC50 (SW620E): 12800 nM
activity factor IC50(1)/IC50(3a–4d), SW620E (SW620E; [1]): (0.316)
increased cytotoxicity vs corresponding amine 1, Colo205 (Colo205): 7 fold
IC50 (Colo205; [2]): 904 nM
activity factor IC50(1)/IC50(3a–4d), Colo205 (Colo205; [1]): (6.71)
increased cytotoxicity vs corresponding amine 1, MCF7 (MCF7): 9 fold
IC50 (MCF7; [2]): 438 nM
activity factor IC50(1)/IC50(3a–4d), MCF7 (MCF7; [1]): (8.93)
IC50 (HepG2; [2]): 1130 nM
activity factor IC50(1)/IC50(3a–4d), HepG2 (HepG2; [1]): (2.12)
IC50 (SW620Mito): 3780 nM
activity factor IC50(1)/IC50(3a–4d), SW620Mito (SW620Mito; [1]): (1.03)
IC50 (SW620D): 13500 nM
activity factor IC50(1)/IC50(3a–4d), SW620D (SW620D; [1]): (0.307)
IC50 (A549; [2]): 2190 nM
activity factor IC50(1)/IC50(3a–4d), A549 (A549; [1]): (3.22)
Cell cycle fraction G1, 24 h (SW620 cells): 51.8 ± 0.2%
Cell cycle fraction G2/M, 24 h (SW620 cells): 32.6 ± 0.3%
Cell cycle fraction S, 24 h (SW620 cells): 15.0 ± 0.5%
Cell cycle fraction G1, 48 h (SW620 cells): 41.8 ± 0.4%
Cell cycle fraction G2/M, 48 h (SW620 cells): 42.7 ± 0.6%
Cell cycle fraction S, 48 h (SW620 cells): 14.9 ± 0.4%

CC(C)[C@@H](N)c1nc2cc(Cl)ccc2c(=O)n1Cc1ccccc1 [(R)-1, reference compound]
IC50 (SW620C; Homo sapiens): 721 nM
IC50 (SW620M; Homo sapiens): 241 nM
IC50 (SW620V; Homo sapiens): 206 nM
KSP residual activity (KSP): about 35%
IC50 (SW620; Homo sapiens, SW-620): 96 nM
IC50 (HCT116; Homo sapiens, HCT-116, 72 h): 346 nM
IC50 (SW620E; Homo sapiens): 835 nM
IC50 (Colo205; Homo sapiens, COLO 205, 72 h): 107 nM
IC50 (MCF7; Homo sapiens, MCF7, 72 h): 231 nM
IC50 (HepG2; Homo sapiens, HepG2, 72 h): 566 nM
IC50 (SW620Mito; Homo sapiens): 261 nM
IC50 (SW620D; Homo sapiens): 1120 nM
IC50 (A549; Homo sapiens, A549, 72 h): 2210 nM
Cell cycle fraction G1, 24 h (SW620 cells): 45.4 ± 1.0%
Cell cycle fraction G2/M, 24 h (SW620 cells): 36.6 ± 2.2%
Cell cycle fraction S, 24 h (SW620 cells): 17.2 ± 1.3%
Cell cycle fraction G1, 48 h (SW620 cells): 36.2 ± 1.4%
Cell cycle fraction G2/M, 48 h (SW620 cells): 42.1 ± 0.4%
Cell cycle fraction S, 48 h (SW620 cells): 19.0 ± 0.6%
